The values that follow come from the supplement of paper PMC10307832.

Holding throughout (test): relative viability (nuclei count vs DMSO), 5 days (fraction); higher = more cells survive
Compound in the assay “Veliparib + Dasatinib”: C[C@]1(c2nc3c(C(N)=O)cccc3[nH]2)CCCN1 [Veliparib] + Cc1nc(Nc2ncc(C(=O)Nc3c(C)cccc3Cl)s2)cc(N2CCN(CCO)CC2)n1 [Dasatinib] (partner 0.075 µM)
The gist of the method: (§1)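 Relative viability divides the nuclei count in treated wells by that in vehicle wells. Lung cancer cell lines were seeded in 1536-well plates, dosed by pin tool the next day, and fixed and stained after 5 days in one step with final 0.05% Triton X-100, 1% formaldehyde and 1 ug/ml Hoechst. Dosing was a single drug or a fixed anchor-drug dose plus five library-drug doses (not always all listed) in √10 steps, and values are medians of duplicate plates imaged at 4×.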

Compound in assay [1]: COC1=CC=C(C=C1)CN2C=CC3=C2C=C(C=C3)C(=O)NO + CC1(C)CCC(c2ccc(Cl)cc2)=C(CN2CCN(c3ccc(C(=O)NS(=O)(=O)c4ccc(N[C@H](CCN5CCOCC5)CSc5ccccc5)c(S(=O)(=O)C(F)(F)F)c4)cc3)CC2)C1 [Navitoclax] (partner 0.5 µM)
The gist of the method:
as §1

Compound in assay [2]: COC1=CC=C(C=C1)CN2C=CC3=C2C=C(C=C3)C(=O)NO + CS(=O)(=O)N1CCN(Cc2cc3nc(-c4cccc5[nH]ncc45)nc(N4CCOCC4)c3s2)CC1 [Pictilisib] (partner 1 µM)
The gist of the method: as §1

Compound in assay [3]: COC1=CC=C(C=C1)CN2C=CC3=C2C=C(C=C3)C(=O)NO + O=C(c1cc(Cc2n[nH]c(=O)c3ccccc23)ccc1F)N1CCN(C(=O)C2CC2)CC1 [Olaparib] (partner 8 µM)
The gist of the method:
as §1

SW 1573: the relative viability with Veliparib + Dasatinib (first compound 0.06325 µM) came out at 0.659; in the assay with Veliparib + Dasatinib (first compound 0.2 µM) it was 0.38; with Veliparib + Dasatinib (first compound 0.6325 µM) it was 0.391; with Veliparib + Dasatinib (first compound 2 µM) it was 0.439; in assay [1] (first compound 0.253 µM), 0.943; in assay [1] (first compound 0.8 µM), 1.19. Besides, the relative viability stood at 0.961 in assay [1] (first compound 2.53 µM); 0.946 in assay [1] (first compound 8 µM); 0.478 in assay [2] (first compound 0.253 µM); 0.554 in assay [2] (first compound 0.8 µM); 0.532 in assay [2] (first compound 2.53 µM); 0.486 in assay [2] (first compound 8 µM). The relative viability in assay [3] (first compound 0.253 µM) worked out at 0.543; in assay [3] (first compound 0.8 µM), 0.465; in assay [3] (first compound 2.53 µM), 0.432; in assay [3] (first compound 8 µM) it was 0.334.
